Experimental data: patent publication EP1137645B1, “ALPHA-METHYLBENZYL-CONTAINING THIOUREA INHIBITORS OF HERPES VIRUSES CONTAINING A […] GROUP” (Wyeth, priority 1998, dated 2000)
≈ marks a conversion by molar mass, not a printed value. Where two headings read alike, the source gives them in different places.

Key:
[1] = system: VZV strain Ellen; assay: VZV antiviral (ELISA) assay; type: cell-based
Description: For the generation of stock VZV to be used in the assay, VZV strain Ellen (ATCC #VR-1367) is used to infect human foreskin fibroblast (HFF) cells at low multiplicity (less than 0.1) and incubated overnight at 37°C in 5% CO2. After the overnight incubation, the mixture of uninfected and VZV-infected HFF infected cells are then harvested and added to each well of 96-well plates (3.5x10^4 cells in 100 µl DMEM supplemented with 2% FBS) which contain test compound or the reference standard drug control (in 100µl DMEM supplemented with 2% FBS per well). These cells are incubated for three days at 37°C in 5% CO2, then fixed for ELISA assay. The primary antibody is murine anti-VZV glycoprotein II monoclonal antibody (Applied Biosystems, Inc. #13-145-100) and the secondary antibody is goat anti-mouse IgG linked to β-galactosidase. Thus the extent of viral replication is determined by assessing β-galactosidase activity by quantifying the generation of the 4-methyl umbelliferone fluorescent cleavage product after addition of the methyl umbelliferyl-β-D-galactoside (Sigma #M1633) substrate on a microfluorimeter (365nm for excitation and 450nm for emission). Antiviral activity (IC50) of the test compound is determined by comparing the flourescence obtained in absence of compound to that obtained in the presence of compound.

[2] = system: HCMV recombinant mutant virus whose genome contains the prokaryotic beta-glucuronidase gene; assay: microbe, parasite or virus in culture; type: cell-based, human cytomegalovirus; details: Human betaherpesvirus 5, Fibroblast
From the text: Microtiter plate assay. Ninety-six well plate cultures of human foreskin fibroblasts are infected in the presence of inhibitor compound with a HCMV recombinant mutant virus whose genome contains the prokaryotic beta-glucuronidase gene (Jefferson, R. A., S. M. Burgess, and D. Hirsh. 1986. Beta-glucuronidase from Escherichia coli as a gene fusion marker. Proc. Natl. Acad. Sci. USA 83:8447-8451) whose expression is controlled by a viral promoter. An example of such a virus is RV145 (Jones, T. R., V. P. Muzithras, and Y. Gluzman. 1991. Replacement mutagenesis of the human cytomegalovirus genome: US10 and US11 gene products are nonessential. J. Virol. 65:5860-5872). Since it is under the control of a viral promoter, beta-glucuronidase expression is an indirect indicator of growth and replication of HCMV in this assay. At 96 hours post-infection, the infected cell lysates are prepared (using 50mM sodium phosphate [pH7.0] containing 0.1% Triton X-100 and 0.1% sarkosyl) and assayed for beta-glucuronidase activity using a substrate for the enzyme which when cleaved yields either a product which can be measured colorimetrically in a spectrophotometer or fluorescently in a microfluorimeter. Examples of such substrates are p-nitrophenyl-beta-D-glucuronide and methylumbelliferylglucuronide, respectively. The presence of an antiviral compound is indicated by the reduced expression of the HCMV genome resident beta-glucuronidase gene, compared to the absence of inhibitor. […] Data from this assay generated using varying amounts of inhibitor compound is also used to estimate the IC50 of an inhibitor compound.

[3] = system: HSV- I; assay: HSV antiviral (ELISA) assay; type: cell-based; details: read-out: IC50 (ug/ml) HSV
Description: Vero cells (ATCC #CCL-81) are plated on 96-well tissue culture plates at 3.5x10^4 cells per 100µl tissue culture DMEM (Dulbecco's modified Eagle media) supplemented with 2% fetal bovine serum (FBS) in each well. After overnight incubation @ 37°C (in 5% CO2) and 30 minutes prior to infection with HSV- I (multiplicity of infection equal to 0.006), cells are either untreated, or treated with test compound (multiple concentrations) or reference standard drug control. After approximately 24 hours post-infection incubation @ 37°C (in 5% CO2), cells are fixed for ELISA assay. The primary antibody is murine anti-HSV glycoprotein D monoclonal primary antibody and the secondary antibody is goat anti-mouse IgG linked to β-galactosidase. Thus the extent of viral replication is determined by assessing β-galactosidase activity by quantifying the generation of the 4-methyl umbelliferone fluorescent cleavage product after addition of the methyl umbelliferyl-β-D-galactoside (Sigma #M1633) substrate on a microfluorimeter (365nm for excitation and 450nm for emission). Antiviral activity (IC50) of the test compound is determined by comparing the flourescence obtained in absence of compound to that obtained in the presence of compound.

[4] = Human alphaherpesvirus 3, HFF, read-out: % inhibition 10 ug/ml VZV
[5] = Human alphaherpesvirus 3, HFF, read-out: IC50 (ug/ml) VZV
[6] = read-out: IC50 ug/ml HCMV, HCMV, human foreskin fibroblasts
[7] = Human alphaherpesvirus 3, HFF, read-out: IC50 (ug/ml) VZV, VZV strain Ellen, HFF cells, ELISA

## COc1cc(OC)c(NC(=S)Nc2ccc(NC(=O)c3ccccc3C)cc2)cc1Cl [Example 114, N-{4-[3-(5-Chloro-2,4-dimethoxy-phenyl)-thioureido]-phenyl}-2-methyl-benzamide]
[1]; [4]
  inhibition at 10 µg/mL: 17%
[1]; [5]
  IC50: > 10 µg/mL
[2]; [6]
  IC50: 5 µg/mL (≈ 11 µM)
[3]; HSV- I, Vero cells, ELISA
  IC50: 0.3 µg/mL (≈ 0.658 µM)

## COc1cc(OC)c(NC(=S)Nc2ccc(NC(=O)c3ccccc3OC(C)=O)cc2)cc1Cl [Example 115, Acetic acid 2-{4-[3-(5-chloro-2,4-dimethoxy-phenyl)-thioureido]-phenyl-carbamoyl}-phenyl ester]
[1]; [4]
  inhibition at 10 µg/mL: 98%
[1]; [5]
  IC50: 4 µg/mL (≈ 8 µM)
[2]; [6]
  IC50: 8 µg/mL (≈ 16 µM)
[3]; HSV- I, Vero cells, ELISA
  IC50: 4 µg/mL (≈ 8 µM)

## COc1cc(OC)c(NC(=S)Nc2ccc(NC(=O)c3ccc(F)cc3)cc2)cc1Cl [Example 116, N-{4-[3-(5-Chloro-2,4-dimethoxy-phenyl)-thioureido]-phenyl}-4-fluoro-benzamide]
[1]; [4]
  inhibition at 10 µg/mL: 0%
[1]; [5]
  IC50: > 10 µg/mL
[2]; [6]
  IC50: 3 µg/mL (≈ 6.52 µM)
[3]; Vero
  IC50: 2 µg/mL (≈ 4.35 µM)

## COc1cc(OC)c(NC(=S)Nc2ccc(NC(=O)c3cccc(F)c3)cc2)cc1Cl [Example 117, N-{4-[3-(5-Chloro-2,4-dimethoxy-phenyl)-thioureido]-phenyl}-3-fluoro-benzamide]
[1]; [4]
  inhibition at 10 µg/mL: 15%
[1]; [5]
  IC50: > 10 µg/mL
[2]; [6]
  IC50: 3 µg/mL (≈ 6.52 µM)
[3]; HSV- I, Vero cells, ELISA
  IC50: 0.3 µg/mL (≈ 0.652 µM)

## COc1cc(OC)c(NC(=S)Nc2ccc(NC(=O)c3ccccc3F)cc2)cc1Cl [Example 118, N-{4-[3-(5-Chloro-2,4-dimethoxy-phenyl)-thioureido]-phenyl}-2-fluoro-benzamide]
[1]; [7]
  IC50: > 10 µg/mL
[2]; [6]
  IC50: 3 µg/mL (≈ 6.52 µM)
[3]; Vero
  IC50: 0.15 µg/mL (≈ 0.326 µM)

## COc1cc(OC)c(NC(=S)Nc2ccc(NC(=O)c3ccccc3OC)cc2)cc1Cl [Example 119, N-{4-[3-(5-Chloro-2,4-dimethoxy-phenyl)-thioureido]-phenyl}-2-methoxy-benzamide]
[1]; [4]
  inhibition at 10 µg/mL: 1%
[1]; [5]
  IC50: > 10 µg/mL
[2]; [6]
  IC50: > 10 µg/mL
[3]; HSV- I, Vero cells, ELISA
  IC50: 0.5 µg/mL (≈ 1.06 µM)

## COc1cccc(C(=O)Nc2ccc(NC(=S)Nc3cc(Cl)c(OC)cc3OC)cc2)c1 [Example 120, N-{4-[3-(5-Chloro-2,4-dimethoxy-phenyl)-thioureido]-phenyl}-3-methoxy-benzamide]
[1]; [4]
  inhibition at 10 µg/mL: 25%
[1]; [5]
  IC50: > 10 µg/mL
[2]; [6]
  IC50: 5 µg/mL (≈ 10.6 µM)
[3]; HSV- I, Vero cells, ELISA
  IC50: 0.8 µg/mL (≈ 1.7 µM)

## COc1ccc(C(=O)Nc2ccc(NC(=S)Nc3cc(Cl)c(OC)cc3OC)cc2)cc1 [Example 121, N-{4-[3-(5-Chloro-2,4-dimethoxy-phenyl)-thioureido]-phenyl}-4-methoxy-benzamide]
[1]; [4]
  inhibition at 10 µg/mL: 0%
[1]; [5]
  IC50: > 10 µg/mL
[2]; [6]
  IC50: 6 µg/mL (≈ 12.7 µM)
[3]; HSV- I, Vero cells, ELISA
  IC50: 0.3 µg/mL (≈ 0.636 µM)

## COc1cc(OC)c(NC(=S)Nc2ccc(NC(=O)c3ccccc3)cc2)cc1Cl [Example 122, N-{4-[3-(5-Chloro-2,4-dimethoxy-phenyl)-thioureido]-phenyl}-benzamide]
[1]; [4]
  inhibition at 10 µg/mL: 13%
[1]; [5]
  IC50: > 10 µg/mL
[2]; [6]
  IC50: 4 µg/mL (≈ 9.05 µM)
[3]; HSV- I, Vero cells, ELISA
  IC50: 0.3 µg/mL (≈ 0.679 µM)

## COc1c(Cl)cc(NC(=S)Nc2ccc(NC(=O)c3ccc(F)cc3)cc2)cc1Cl [Example 133, N-{4-[3-(3,5-Dichloro-4-methoxy-phenyl)-thioureido]-phenyl}-4-fluoro-benzamide]
[1]; [4]
  inhibition at 10 µg/mL: 36%
[1]; [5]
  IC50: > 10 µg/mL
[2]; [6]
  IC50: 0.6 µg/mL (≈ 1.29 µM)
[3]; HSV- I, Vero cells, ELISA
  IC50: 7 µg/mL (≈ 15.1 µM)

## COc1cc(OC)c(NC(=S)Nc2ccc(NC(=O)c3cccc(NC(C)=O)c3)cc2)cc1Cl [Example 134, 3-Acetylamino-N-{4-[3-(5-chloro-2,4-dimethoxy-phenyl)-thioureido]-phenyl}-benzamide]
[1]; [4]
  inhibition at 10 µg/mL: 50%
[1]; [5]
  IC50: > 10 µg/mL
[2]; [6]
  IC50: 4 µg/mL (≈ 8.02 µM)
[3]; HSV- I, Vero cells, ELISA
  IC50: > 10 µg/mL

## COc1cc(OC)c(NC(=S)Nc2ccc(NC(=O)c3cccc([N+](=O)[O-])c3)cc2)cc1Cl [Example 135, N-{4-[3-(5-Chloro-2,4-dimethoxy-phenyl)-thioureido]-phenyl}-3-nitro-benzamide]
[1]; [4]
  inhibition at 10 µg/mL: 0%
[1]; [5]
  IC50: > 10 µg/mL
[2]; [6]
  IC50: 5 µg/mL (≈ 10.3 µM)
[3]; HSV- I, Vero cells, ELISA
  IC50: 1.5 µg/mL (≈ 3.08 µM)

## COc1cc(OC)c(NC(=S)Nc2ccc(NC(=O)c3cccc(N(C)C)c3)cc2)cc1Cl [Example 136, N-{4-[3-(5-Chloro-2,4-dimethoxy-phenyl)-thioureido]-phenyl}-3-dimethylamino-benzamide]
[1]; [4]
  inhibition at 10 µg/mL: 40%
[1]; [5]
  IC50: > 10 µg/mL
[2]; [6]
  IC50: 10 µg/mL (≈ 20.6 µM)
[3]; HSV- I, Vero cells, ELISA
  IC50: 1 µg/mL (≈ 2.06 µM)

## COc1cc(OC)c(NC(=S)Nc2ccc(NC(=O)c3cccc(NS(C)(=O)=O)c3)cc2)cc1Cl [Example 137, N-{4-[3-(5-Chloro-2,4-dimethoxy-phenyl)-thioureido]-phenyl}-3-methane-sulfony-amino-benzamide]
[1]; [4]
  inhibition at 10 µg/mL: 72%
[1]; [7]
  IC50: > 15 µg/mL
[2]; [6]
  IC50: 10 µg/mL (≈ 18.7 µM)
[3]; Vero
  IC50: 10 µg/mL (≈ 18.7 µM)

## COc1cc(OC)c(NC(=S)Nc2ccc(NC(=O)c3ccccc3C(F)(F)F)cc2)cc1Cl [Example 138, N-{4-[3-(5-Chloro-2,4-dimethoxy-phenyl)-thioureido]-phenyl}-2-trifluoro-methyl-benzamide]
[1]; [4]
  inhibition at 10 µg/mL: 57%
[1]; [5]
  IC50: > 10 µg/mL
[2]; [6]
  IC50: 8 µg/mL (≈ 15.7 µM)
[3]; HSV- I, Vero cells, ELISA
  IC50: 1 µg/mL (≈ 1.96 µM)

## COc1cc(OC)c(NC(=S)Nc2ccc(NC(=O)c3ccccc3O)cc2)cc1Cl [Example 139, N-{4-[3-(5-Chloro-2,4-dimethoxy-phenyl)-thioureido]-phenyl}-2-hydroxy-benzamide]
[1]; [4]
  inhibition at 10 µg/mL: 95%
[1]; [5]
  IC50: 4 µg/mL (≈ 8.73 µM)
[2]; [6]
  IC50: 6 µg/mL (≈ 13.1 µM)
[3]; HSV- I, Vero cells, ELISA
  IC50: 6 µg/mL (≈ 13.1 µM)

## COc1cc(OC)c(NC(=S)Nc2ccc(NC(=O)c3c(F)cccc3F)cc2)cc1Cl [Example 140, N-{4-[3-(5-Chloro-2,4-dimethoxy-phenyl)-thioureido]-phenyl}-2,6-difluoro-benzamide]
[1]; [4]
  inhibition at 10 µg/mL: 65%
[1]; [5]
  IC50: 10 µg/mL (≈ 20.9 µM)
[2]; [6]
  IC50: 4 µg/mL (≈ 8.37 µM)
[3]; HSV- I, Vero cells, ELISA
  IC50: 0.15 µg/mL (≈ 0.314 µM)

## COc1cc(OC)c(NC(=S)Nc2ccc(NC(=O)c3ccccc3Cl)cc2)cc1Cl [Example 141, 2-Chloro-N-{4-[3-(5-chloro-2,4-dimethoxy-phenyl)-thioureido]-phenyl}-benzamide]
[1]; [4]
  inhibition at 10 µg/mL: 40%
[1]; [5]
  IC50: > 10 µg/mL
[2]; [6]
  IC50: 6 µg/mL (≈ 12.6 µM)
[3]; HSV- I, Vero cells, ELISA
  IC50: 0.25 µg/mL (≈ 0.525 µM)

## COc1cc(OC)c(NC(=S)Nc2ccc(NC(=O)c3ccccc3Br)cc2)cc1Cl [Example 142, 2-Bromo-N-{4-[3-(5-chloro-2,4-dimethoxy-phenyl)-thioureido]-phenyl}-benzamide]
[1]; Human alphaherpesvirus 3, read-out: % inhibition 10 ug/ml VZV, 10 ug/ml, VZV strain Ellen, HFF cells, ELISA
  inhibition at 10 µg/mL: 51%
[1]; Human alphaherpesvirus 3, VZV strain Ellen, HFF cells, ELISA, read-out: IC50 (ug/ml) VZV
  IC50: > 15 µg/mL
[2]; read-out: IC50 ug/ml HCMV
  IC50: 10 µg/mL (≈ 19.2 µM)
[3]; HSV- I, Vero cells, ELISA
  IC50: 0.4 µg/mL (≈ 0.768 µM)

## COc1cc(OC)c(NC(=S)Nc2ccc(NC(=O)c3ccccc3[N+](=O)[O-])cc2)cc1Cl [Example 143, N-{4-[3-(5-Chloro-2,4-dimethoxy-phenyl)-thioureido]-phenyl}-2-nitro-benzamide]
[1]; [4]
  inhibition at 10 µg/mL: 68%
[1]; [5]
  IC50: > 15 µg/mL
[2]; [6]
  IC50: > 10 µg/mL
[3]; HSV- I, Vero cells, ELISA
  IC50: 1 µg/mL (≈ 2.05 µM)
